Measured values reported in US4080467A, “Pharmaceutical compositions comprising 1,3-dithiolan-2-ylidene malonate derivatives” (Nihon Nohyaku Co., Ltd., priority 1976, dated 1978).

Assays:
[1] = system: Acute Liver Damage associated with Centrilobular Necrosis (carbon tetrachloride); experiment: Protective effect on acute liver damage associated with centrilobular necrosis (carbon tetrachloride model); assay type: in vivo, mice (four-week-old male, dd strain); conditions: 250 mg/kg oral 6 h before CCl4, average of 5 to 6 mice
[2] = system: Chronic Liver Damage (thioacetamide); experiment: Therapeutic effect on chronic liver damage (thioacetamide model), BSP test; assay type: in vivo, rats (Sprague Dawley strain); conditions: 12 times TAA 100 mg/kg, then diet + 0.2% compound
Procedure: In the tests of this Example, TAA was repeatedly administered to animals to prepare test animals suffering from somewhat chronic liver damages, and then the present compounds were administered thereto to know whether or not the compounds were effective against chronic hepatitis.
The degree of the liver damage and the therapeutic effects of the compounds were evaluated according to BSP test. The BSP test is a method in which BSP (sulfobromophthalein sodium), a dye known to be quickly metabolized in and excreted from the liver, is intravenously injected into animals and, after a definite period of time, the blood is taken out to measure the amount of BSP remaining in the plasma. In case the animals are suffering from the liver damage, the dye will remain, according to the degree of the damage, at the stage where a major portion of BSP is metabolized and excreted in the case of normal animals.
Five groups of rats (Sprague Dawley strain) were treated as follows:
Group A: The rats were orally administered with 100 mg/kg of thioacetamide,at 3 days intervals for 36 days (12 times of the administration), then were submitted for 10 days to a normal diet.
Group B: The rats were orally administered with 100 mg/kg of thioacetamide at 3 days intervals for 36 days (12 times of the administration), then were submitted for 10 days to the normal diet + 0.2% of compound 4.
Group C: The rats were orally administered with 100 mg/kg of thioacetamide at 3 days intervals for 36 days (12 times of the administration) then were submitted for 10 days to the normal diet + 0.2% of compound 2.
Group D: The rats were orally administered with 100 mg/kg of thioacetamide at 3 days intervals for 36 days (12 times of the administration) then were submitted for 10 days to the normal diet + 0.2% of anethol trithion.
Group E: The rats were submitted to the normal diet as the control.
Five rats were sacrified from each group at appropriate intervals for BSP (sulfobromophthalein) test, the results of which were shown as amounts (mg) of BSP remaining in 1 dl of plasma.

[3] = system: acute liver damage associated with periportal necrosis (allyl alcohol); experiment: Protective effect on acute liver damage associated with periportal necrosis (allyl alcohol model), BSP test; assay type: in vivo, male mouse (4 week-old dd-strain); conditions: 100 mg/kg oral 6 h before allyl alcohol 0.075 ml/kg; 24 h after
Procedure: The compound of this invention or anethol trithion was orally administered to the male mouse (4 week-old dd-strain) at the dose of 100 mg/kg. Six hours after it, allyl alcohol was orally administered at the dose of 0.075 ml/kg. Twenty four hours after it, the animals were sacrificed to collect blood samples. The residual quantity of BSP was measured by BSP test, from which the protective effect of the compound of this invention was evaluated.

[4] = Effect on concentration of ethyl alcohol in the blood; assay type: in vivo, mice; conditions: 250 mg/kg oral 6 h before ethyl alcohol 1,000 mg/kg
Procedure: The test compounds are dissolved or suspended in olive oil and administered orally at the dose of 250 mg/kg to the mice. After 6 hours, 1,000 mg/kg of ethyl alcohol was given orally. Blood was taken in a capillary from caudal vein at the time indicated in the results. The plasma was obtained by centrifugation. The concentration of ethyl alcohol in the plasma was measured by FID type gas liquid chromatography. Five mice were used for each group.

[5] = Acute oral toxicity to male mice (LD50); conditions: mouse, in vivo

Which results are given for `CC(C)OC(=O)C(C(=O)OC(C)C)=C1SCCS1` [Compound 4, Diisopropyl 1,3-dithiolan-2-yliden malonate]?
p-GPT (plasma glutamic-pyruvic transaminase activity) ([1]; 24 h after CCl4, values over 1,000 regarded as 1,000): 23 Karmen units; Liver Damage Index ([1]; 0 normal, 2 slightly recognized, 4 clearly observable damage, 6 heavy damage): 0.2; Concentration of BSP in plasma ([2]; 2 Days): 7.6 ± 1.1 mg/dL; Concentration of BSP in plasma ([2]; 5 Days): 3.8 ± 0.5 mg/dL; Concentration of BSP in plasma ([2]; 10 Days): 0.3 ± 0.1 mg/dL; Index of hepatotoxicity: BSP (residual quantity of BSP) [3]: 16±2.3; Concentration of Ethyl alcohol in Plasma ([4]; 0 min): 9±4 ppm; Concentration of Ethyl alcohol in Plasma ([4]; 5 min): 727±84 ppm; Concentration of Ethyl alcohol in Plasma ([4]; 15 min): 715±146 ppm; Concentration of Ethyl alcohol in Plasma ([4]; 30 min): 430±105 ppm; Concentration of Ethyl alcohol in Plasma ([4]; 60 min): 13±11 ppm; LD50 [5]: 1350 mg/kg
